According to the supplement of paper PMC11451515:

Experiments:
Conditions in all cases: 48 h
P12-Ichikawa [1] = assay: AUC of viability dose-response curve (% viability x log10 dose units); higher = less sensitive
In short: (§1)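 Medium-adapted leukemia cells in 1536-well plates, at 500 or 1000 cells/well, were incubated for 48 h at 37°C with library compounds in DMSO at 11 threefold doses from 47 μM to 0.79 nM. CellTiter-Glo One luminescence normalised per plate to DMSO and cell-free wells was fitted with a four-parameter log-logistic model over log10 doses. Area under the curve was integrated from this fit by trapezoidal rule, with curves beyond full viability scaled and failed quality-control curves removed.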

SEM cells [2] = assay: as above
In short: as §1

NOMO1 [3] = assay: as above
In short: as §1

P12-Ichikawa [4] = assay: cell viability relative to DMSO control; higher = less cytotoxic
In short: (§2)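 Before seeding, each leukemia line was adapted for at least four passages in each medium. NOMO1 or SEM cells (500 cells/well) and P12-Ichikawa cells (1000 cells/well) went into 1536-well plates at 5 μl, then received library compounds in DMSO by pin dosing across 11 threefold concentrations, 47 μM to 0.79 nM. Readout was CellTiter-Glo One luminescence after 48 h at 37°C, and viability is given as a per-plate percentage of DMSO wells, with cell-free wells as background.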

SEM cells [5] = assay: as above
In short: as §2

NOMO1 [6] = assay: as above
In short: as §2

CC(C)N(CCCNC(=O)Nc1ccc(C(C)(C)C)cc1)C[C@H]1O[C@@H](n2cc(Br)c3c(N)ncnc32)[C@H](O)[C@@H]1O
AUC of viability dose-response curve
Conditions	NOMO1 [3]	P12-Ichikawa [1]	SEM cells [2]
HPLM + 10% dialyzed FBS	433	409	433
RPMI 5 mM glucose + 10% FBS	397	405	434
RPMI 5 mM glucose + 10% dialyzed FBS	398	395	397

cell viability [%]
Conditions	NOMO1 [6]	P12-Ichikawa [4]	SEM cells [5]
HPLM + 10% dialyzed FBS, 0.000781 µM	98.3	85.8	87.3
HPLM + 10% dialyzed FBS, 0.00234 µM	101	89.9	99.8
HPLM + 10% dialyzed FBS, 0.00702 µM	112	92.2	96.6
HPLM + 10% dialyzed FBS, 0.0211 µM	84.5	93	98.8
HPLM + 10% dialyzed FBS, 0.0632 µM	105	97	105
HPLM + 10% dialyzed FBS, 0.19 µM	106	94	101
HPLM + 10% dialyzed FBS, 0.569 µM	110	97.9	85.1
HPLM + 10% dialyzed FBS, 1.71 µM	95.1	88	98.4
HPLM + 10% dialyzed FBS, 5.12 µM	85.4	81.4	104
HPLM + 10% dialyzed FBS, 15.4 µM	71.4	77.8	72.4
HPLM + 10% dialyzed FBS, 46.1 µM	9.86	13.8	18
RPMI 5 mM glucose + 10% FBS, 0.000781 µM	80	87.3	83.1
RPMI 5 mM glucose + 10% FBS, 0.00234 µM	96.3	91.6	98.3
RPMI 5 mM glucose + 10% FBS, 0.00702 µM	88.7	90.8	115
RPMI 5 mM glucose + 10% FBS, 0.0211 µM	87.8	86.1	104
RPMI 5 mM glucose + 10% FBS, 0.0632 µM	86	87.1	114
RPMI 5 mM glucose + 10% FBS, 0.19 µM	80.8	87.2	109
RPMI 5 mM glucose + 10% FBS, 0.569 µM	92.2	91.5	106
RPMI 5 mM glucose + 10% FBS, 1.71 µM	80.9	85.8	104
RPMI 5 mM glucose + 10% FBS, 5.12 µM	94.2	87.1	77.4
RPMI 5 mM glucose + 10% FBS, 15.4 µM	73.8	74	77.2
RPMI 5 mM glucose + 10% FBS, 46.1 µM	31.8	47.2	17.1
RPMI 5 mM glucose + 10% dialyzed FBS, 0.000781 µM	86.4	83.5	67.2
RPMI 5 mM glucose + 10% dialyzed FBS, 0.00234 µM	81.3	90	92.6
RPMI 5 mM glucose + 10% dialyzed FBS, 0.00702 µM	93.6	89.6	98.9
RPMI 5 mM glucose + 10% dialyzed FBS, 0.0211 µM	105	88.3	92.5
RPMI 5 mM glucose + 10% dialyzed FBS, 0.0632 µM	90.1	85.4	89.7
RPMI 5 mM glucose + 10% dialyzed FBS, 0.19 µM	86.3	88.6	91.4
RPMI 5 mM glucose + 10% dialyzed FBS, 0.569 µM	81.6	91.8	87.7
RPMI 5 mM glucose + 10% dialyzed FBS, 1.71 µM	82.2	80.1	80.2
RPMI 5 mM glucose + 10% dialyzed FBS, 5.12 µM	90.5	85.4	83.5
RPMI 5 mM glucose + 10% dialyzed FBS, 15.4 µM	68.8	68.9	78.9
RPMI 5 mM glucose + 10% dialyzed FBS, 46.1 µM	26.2	39.2	26.3

COc1ccc2c(c1)CC[C@@H](CN(C)CC(=O)O)[C@H]2c1ccccc1
AUC of viability dose-response curve
Conditions	NOMO1 [3]	P12-Ichikawa [1]	SEM cells [2]
HPLM + 10% dialyzed FBS	409	368	373
RPMI 5 mM glucose + 10% FBS	407	369	362
RPMI 5 mM glucose + 10% dialyzed FBS	411	390	385

cell viability [%]
Conditions	NOMO1 [6]	P12-Ichikawa [4]	SEM cells [5]
RPMI 5 mM glucose + 10% FBS, 0.000781 µM	–	–	120
RPMI 5 mM glucose + 10% FBS, 0.00234 µM	–	–	122
RPMI 5 mM glucose + 10% FBS, 0.00702 µM	–	–	126
RPMI 5 mM glucose + 10% FBS, 0.0211 µM	–	–	109
RPMI 5 mM glucose + 10% FBS, 0.0632 µM	–	–	124
RPMI 5 mM glucose + 10% FBS, 0.19 µM	–	–	104
RPMI 5 mM glucose + 10% FBS, 0.569 µM	–	–	110
RPMI 5 mM glucose + 10% FBS, 1.71 µM	–	–	79.8
RPMI 5 mM glucose + 10% FBS, 5.12 µM	–	–	31
RPMI 5 mM glucose + 10% FBS, 15.4 µM	–	–	20.9
RPMI 5 mM glucose + 10% FBS, 46.1 µM	–	–	16
RPMI 5 mM glucose + 10% dialyzed FBS, 0.000781 µM	120	116	94.9
RPMI 5 mM glucose + 10% dialyzed FBS, 0.00234 µM	125	122	100
RPMI 5 mM glucose + 10% dialyzed FBS, 0.00702 µM	125	129	101
RPMI 5 mM glucose + 10% dialyzed FBS, 0.0211 µM	101	119	110
RPMI 5 mM glucose + 10% dialyzed FBS, 0.0632 µM	127	119	109
RPMI 5 mM glucose + 10% dialyzed FBS, 0.19 µM	130	116	115
RPMI 5 mM glucose + 10% dialyzed FBS, 0.569 µM	125	119	115
RPMI 5 mM glucose + 10% dialyzed FBS, 1.71 µM	123	105	91.3
RPMI 5 mM glucose + 10% dialyzed FBS, 5.12 µM	85.2	54.9	41.5
RPMI 5 mM glucose + 10% dialyzed FBS, 15.4 µM	29.8	28.8	24.8
RPMI 5 mM glucose + 10% dialyzed FBS, 46.1 µM	36.6	29.1	19.9

CNCCN(C)Cc1c[nH]nc1-c1ccc(O[C@H]2C[C@H](OCCC3CCOCC3)C2)cc1
AUC of viability dose-response curve
Conditions	NOMO1 [3]	P12-Ichikawa [1]	SEM cells [2]
HPLM + 10% dialyzed FBS	457	457	436
RPMI 5 mM glucose + 10% FBS	461	472	397
RPMI 5 mM glucose + 10% dialyzed FBS	465	468	431

cell viability [%]
Conditions	NOMO1 [6]	P12-Ichikawa [4]	SEM cells [5]
HPLM + 10% dialyzed FBS, 0.000781 µM	115	104	98.5
HPLM + 10% dialyzed FBS, 0.00234 µM	110	120	96.9
HPLM + 10% dialyzed FBS, 0.00702 µM	129	124	116
HPLM + 10% dialyzed FBS, 0.0211 µM	150	119	110
HPLM + 10% dialyzed FBS, 0.0632 µM	136	122	112
HPLM + 10% dialyzed FBS, 0.19 µM	156	122	122
HPLM + 10% dialyzed FBS, 0.569 µM	133	135	116
HPLM + 10% dialyzed FBS, 1.71 µM	128	123	112
HPLM + 10% dialyzed FBS, 5.12 µM	114	95.1	103
HPLM + 10% dialyzed FBS, 15.4 µM	103	90.1	60.6
HPLM + 10% dialyzed FBS, 46.1 µM	121	118	35.9
RPMI 5 mM glucose + 10% FBS, 0.000781 µM	126	–	101
RPMI 5 mM glucose + 10% FBS, 0.00234 µM	123	–	103
RPMI 5 mM glucose + 10% FBS, 0.00702 µM	122	–	147
RPMI 5 mM glucose + 10% FBS, 0.0211 µM	132	–	117
RPMI 5 mM glucose + 10% FBS, 0.0632 µM	149	–	115
RPMI 5 mM glucose + 10% FBS, 0.19 µM	141	–	120
RPMI 5 mM glucose + 10% FBS, 0.569 µM	135	–	107
RPMI 5 mM glucose + 10% FBS, 1.71 µM	131	–	130
RPMI 5 mM glucose + 10% FBS, 5.12 µM	141	–	45.2
RPMI 5 mM glucose + 10% FBS, 15.4 µM	148	–	45.1
RPMI 5 mM glucose + 10% FBS, 46.1 µM	132	–	24.7
RPMI 5 mM glucose + 10% dialyzed FBS, 0.000781 µM	119	–	130
RPMI 5 mM glucose + 10% dialyzed FBS, 0.00234 µM	122	–	111
RPMI 5 mM glucose + 10% dialyzed FBS, 0.00702 µM	140	–	125
RPMI 5 mM glucose + 10% dialyzed FBS, 0.0211 µM	143	–	135
RPMI 5 mM glucose + 10% dialyzed FBS, 0.0632 µM	151	–	156
RPMI 5 mM glucose + 10% dialyzed FBS, 0.19 µM	130	–	118
RPMI 5 mM glucose + 10% dialyzed FBS, 0.569 µM	147	–	145
RPMI 5 mM glucose + 10% dialyzed FBS, 1.71 µM	147	–	156
RPMI 5 mM glucose + 10% dialyzed FBS, 5.12 µM	144	–	112
RPMI 5 mM glucose + 10% dialyzed FBS, 15.4 µM	141	–	73.1
RPMI 5 mM glucose + 10% dialyzed FBS, 46.1 µM	124	–	29.4
